What was measured:
Format in all cases: cell-based
[1] = system: normal prostate epithelial (RWPE1) cells vs prostate cancer (PC3) cells; test: MTT cytotoxicity assay, normal prostate epithelial cells versus prostate cancer cells
Description: Certain compounds of the invention were tested in an MTT cytotoxicity assay against a breast cancer cell line (MCF7), prostate cancer cell line (PC3), cervical cancer cell line (CasKi), and head and neck cancer cell line (SQ20B). In the breast and prostate cancer MTT assays, certain compounds of the invention were also tested against normal breast (MCF10A) and prostate (RWPE1) epithelial tissues.
Specifically, the compounds tested included SP-1-161, SP-1-229, and SP-1-303. Suberoylanilide hydroxamic acid (SAHA), a known HDAC inhibitor, was also tested in the assay as control.

[2] = system: cervical cancer cells (CasKi); test: Radiation clonogenic survival, cervical cancer cells
Description: (§1) Logarithmically growing cells were seeded into T-25 flasks at various densities to yield approximately 50-100 colonies/flask. After incubation for 24 h at 37° C., cells were treated or not with the compound at the IC50 concentration for 24 h followed by sham or irradiation at room temperature using a Mark-30 irradiator with a 137-Cs source at a fixed dose rate of 2.27 Gy/min. After 10-14 days, cells were fixed and stained with crystal violet, and colonies of more than 50 cells were counted. The surviving fractions of the treated cells were normalized to the plating efficiencies of untreated controls. Radiation survival curves were fitted by computer to the single-hit, multitarget and the linear-quadratic models.
FIGS. 17-19 illustrate the effects of drugs on radiation cologenetic survivals. Cells were pretreated with drug 24 hours prior to exposure to graded doses of gamma radiation. Compounds SP-1-161 and SP-1-303 were tested in a clonogenic survival study with cervical cancer cells (CasKi) with a protocol similar to that described in Example 12. The radiation sensitivity of cells is defined by the terminal slope of the radiation survival curve, which is referred to as D0. The steeper the slope, the smaller the value of D0 and thus the more radiation sensitive the respective cells. Alternatively, a less steep slope results in a larger D0 and a more resistant radiation response. […]

[3] = system: breast cancer cells (MCF7 cells); test: Radiation clonogenic survival, breast cancer cells; conditions: compound at IC50 concentration for 24 h, then gamma radiation; compared with DIM
Description: (§2) N-(6-(hydroxyamino)-6-oxohexyl)-3-methyl-1H-indole-2-carboxamide (SP-1-161) was tested against DIM in a radiation clonogenic survival study with healthy breast epithelial cells (184A1 cells) (FIG. 11A) and breast cancer cells (MCF7 cells) (FIG. 11B). After treatment with the compounds of the invention for 24 hours, the cells were exposed to graded doses of gamma radiation.
as §1
(§3) The radiation sensitivity of cells is defined by the terminal slope of the radiation survival curve, which is referred to as D0. The steeper the slope, the smaller is the value of D0, and thus the more radiation sensitive the respective cells. […]

[4] = system: healthy breast epithelial cells (184A1 cells); test: Radiation clonogenic survival, normal breast epithelial cells; conditions: compound at IC50 concentration for 24 h, then gamma radiation; compared with DIM
Description: as §2, §1, §3

## Cc1c(C(=O)NCCCCCC(=O)NO)[nH]c2ccccc12 [SP-1-161, N-(6-(hydroxyamino)-6-oxohexyl)-3-methyl-1H-indole-2-carboxamide]
[1]
  fold less toxic in normal prostate epithelial (RWPE1) cells than in prostate cancer (PC3) cells: 15 fold
[2]; CasKi cells pretreated with drug 24 hours before graded doses of gamma radiation, DMSO control D0=2.4
  D0 (terminal slope of the radiation survival curve): 1.6
[2]; CasKi cells, drug 24 hours before gamma radiation
  radiation sensitization of CasKi cells (decrease of D0 with respect to control): sensitized CasKi cells
[3]
  radiation sensitizing activity in breast cancer cells (MCF7): demonstrated radiation sensitizing activity and further outperformed DIM
[4]
  protection of normal cells from radiation (184A1): protected normal cells from radiation-mediated killing

Source: patent publication US10745352B2, “Dual function molecules for histone deacetylase inhibition and ataxia telangiectasia mutated activation and methods of use thereof” (Shuttle Pharmaceuticals, Inc., priority 2015, dated 2020)
